Measurements published in ChEMBL document CHEMBL1146416, “A new glycoside antimicrobial agent from Persoonia linearis x pinifolia” (J Nat Prod, 1997).
Calls of active or inactive are those of the source. The rule behind the calls is not given here.

Legend:
Assay type in all cases: functional, organism-based
[1] = test system: Escherichia coli; experiment: Antimicrobial activity against Escherichia coli RSC2 at 6.25 ug/disk after 18 to 24 hrs
[2] = test system: Bacillus subtilis; experiment: Antimicrobial activity against Bacillus subtilis RSC1 at <12.5 ug/disk after 24 hrs
[3] = test system: Phytophthora cinnamomi; experiment: Antimicrobial activity against Phytophthora cinnamomi RSC290 at 6.25 ug/disk after 18 to 24 hrs

## C=C(C(=O)OC[C@H]1O[C@@H](Oc2ccc(O)cc2)[C@H](O)[C@@H](O)[C@@H]1O)[C@@H](O)CO
[1]
  Activity: Active
[2]
  Activity: inactive
[3]
  Activity: Active
